Data from patent publication US20240190854A1, “PYRIMIDINE OR PYRIDINE DERIVATIVES USEFUL AS HCN2 MODULATORS” (King's College London, priority 2021, published 2024).
pIC50: −log10 of the molar value. Where a name gives a salt, the structure may show the parent alone. Read-outs that look alike come from different tables or passages of the source.

Columns and labels:
[1] = molecular target: T1, hERG channel (Homo sapiens (Human), UniProt Q12809); assay: hERG assay using IonWorks Quattro; type: cell-based; details: IonWorks protocol; read-out: IW hERG IC50
[2] = molecular target: T2, hNav1.5 (Homo sapiens (Human), UniProt Q14524)
[3] = molecular target: T3, HCN1 (Homo sapiens (Human), UniProt O60741); assay: HCN1 current assay using PatchXpress 7000A; type: cell-based; details: PatchXpress protocol; read-out: PX HCN1 IC50
Experimental: Example 126A, Using PatchXpress 7000A
(§1) Solutions for recording HCN currents were:
The membrane voltage was then stepped back to −30 mV for a further 8 seconds.
The peak inward current measured at the end of the pulse to −110 mV (HCN1 and HCN2) or −130 mV (HCN4) was measured and any leak current subtracted to calculate the HCN current. The HCN current amplitude was measured after each control or compound addition and normalized to the control amplitude (Control A).
All experiments were performed at room temperature (approximately 22° C.).
Each test compound concentration was applied to the cell for seven (7) minutes, at which point the next cumulative concentration was applied.

[4] = molecular target: T4, HCN2 (Homo sapiens (Human), UniProt Q9UL51); assay: HCN2 current assay using PatchXpress 7000A; type: cell-based; details: PatchXpress protocol; read-out: PX HCN2 IC50
Method in brief: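 Automated patch clamp (PatchXpress 7000A) at about 22° C. HCN current taken as leak-subtracted peak inward current at the end of a step to −110 mV, with a return to −30 mV for 8 seconds. Cumulative concentrations applied 7 minutes each; amplitude normalised to control.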

[5] = molecular target: T5, HCN4 (Homo sapiens (Human), UniProt Q9Y3Q4); assay: HCN4 current assay using PatchXpress 7000A; type: cell-based; details: PatchXpress protocol; read-out: PX HCN4 IC50
Method in brief: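 Peak inward current taken at end of a −130 mV pulse, leak-subtracted, and normalized to the control amplitude. Cumulative concentrations applied for 7 min each at room temperature (approximately 22° C.) on an automated patch-clamp platform.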

[6] = molecular target: T3, HCN1; assay: HCN1 current assay using the Sophion Qube; type: cell-based; details: Sophion Qube protocol; read-out: SQ HCN1 IC50
Experimental: (§2) Example 126B, Using the Sophion Qube
as §1
(§3) This voltage protocol was applied every 20 seconds for the duration of the experiment. Both the vehicle (0.3% DMSO) and full block (3 mM CsCl) addition periods were applied for 10 experimental sweeps each.
(§4) The current amplitudes were measured by subtracting metric A from metric B (see FIG. 2) with inhibition calculated by normalising to the vehicle addition (0.3% DMSO) and full inhibition by 3 mM CsCl in the same well.
(§5) In total, compound was applied to the well for 600 seconds.

[7] = molecular target: T4, HCN2; assay: HCN2 current assay using the Sophion Qube; type: cell-based; details: Sophion Qube protocol; read-out: SQ HCN2 IC50
Experimental: as §2, §1, §3, §4, §5

[8] = molecular target: MDR1 (P-glycoprotein) (Homo sapiens (Human), UniProt P08183); assay: in vitro; details: dog, MDCK-MDR1, pH 7.4
Experimental: Test compounds were added (10 μM, 0.1% DMSO final, n=2) to donor compartments of the Transwell plate assembly in assay buffer (Hanks balanced salt solution supplemented with 25 mM HEPES, adjusted to pH 7.4) for both apical to basolateral (A>B) and basolateral to apical (B>A) measurements. A parallel series of incubations were performed in the presence of the transporter inhibitor elacridar (5 μM) which was added to both compartments in the transwell plate. Incubations were performed at 37° C., with samples removed from both donor and acceptor chambers at T=0 and 1 hour for recovery assessment and compound analysed by mass spectrometry (LC-MS/MS), including an analytical internal standard.
Apparent permeability (Papp) values were determined from the relationship:
Where V is the volume of each Transwell compartment (apical 125 μL, basolateral 600 μL), and concentrations are the relative MS responses for compound (normalized to internal standard) in the donor chamber before incubation and acceptor chamber at the end of the incubation.
Area=area of cells exposed for drug transfer (0.33 cm2).
Efflux ratios (Papp B>A/Papp A>B) were calculated for each compound from the mean Papp values in each direction. […] The efflux ratios were also calculated in the same way from the runs carried out in the presence of the inhibitor. The net flux is the ratio of the efflux in the absence of inhibitor to that in the presence of inhibitor.
Lucifer Yellow (LY) was added to the apical buffer in all wells to assess viability of the cell layer.
Compound recovery from the wells was determined from MS responses (normalized to internal standard) in donor and acceptor chambers at the end of incubation compared to response in the donor chamber pre-incubation.

[9] = molecular target: T1, hERG channel; assay: hERG assay using Sophion Qube; type: cell-based; details: Sophion Qube protocol; read-out: SQ hERG IC50
Experimental: Example 127B, Using Sophion Qube
Solutions for recording hERG currents were:
This voltage protocol was applied every 15 seconds for the duration of the experiment. Both the vehicle and 1st compound addition periods were applied for 10 sweeps. The 2nd compound addition period was applied for 20 sweeps. The compound concentration was added to the test well twice to assure complete exchange of the external buffer with the test compound. In total, compound was applied to the well for 450 seconds.

[10] = molecular target: T5, HCN4; assay: HCN4 current assay using the Sophion Qube; type: cell-based; details: Sophion Qube protocol; read-out: SQ HCN4 IC50
Experimental: as §2, §1, §3, §4, §5

[11] = molecular target: T2, hNav1.5; remark: listed apart in the source
Experimental: The cells were held at −100 mV followed by a depolarising step to −10 mV for 100 milliseconds before stepping back to −100 mV, this represents 1 experimental sweep.
For tonic block (0.1 Hz), the peak currents evoked by the step to −10 mV were measured for the analysis of the percentage inhibition by test compounds. For use-dependent block (4 Hz), the peak current evoked at the 20th depolarising step to −10 mV was measured for the analysis of the percentage inhibition by test compounds. Peak currents were first normalised to the vehicle addition (0.3% DMSO) in the same well.

T5 sequence (Q9Y3Q4 whole entry, species assumed): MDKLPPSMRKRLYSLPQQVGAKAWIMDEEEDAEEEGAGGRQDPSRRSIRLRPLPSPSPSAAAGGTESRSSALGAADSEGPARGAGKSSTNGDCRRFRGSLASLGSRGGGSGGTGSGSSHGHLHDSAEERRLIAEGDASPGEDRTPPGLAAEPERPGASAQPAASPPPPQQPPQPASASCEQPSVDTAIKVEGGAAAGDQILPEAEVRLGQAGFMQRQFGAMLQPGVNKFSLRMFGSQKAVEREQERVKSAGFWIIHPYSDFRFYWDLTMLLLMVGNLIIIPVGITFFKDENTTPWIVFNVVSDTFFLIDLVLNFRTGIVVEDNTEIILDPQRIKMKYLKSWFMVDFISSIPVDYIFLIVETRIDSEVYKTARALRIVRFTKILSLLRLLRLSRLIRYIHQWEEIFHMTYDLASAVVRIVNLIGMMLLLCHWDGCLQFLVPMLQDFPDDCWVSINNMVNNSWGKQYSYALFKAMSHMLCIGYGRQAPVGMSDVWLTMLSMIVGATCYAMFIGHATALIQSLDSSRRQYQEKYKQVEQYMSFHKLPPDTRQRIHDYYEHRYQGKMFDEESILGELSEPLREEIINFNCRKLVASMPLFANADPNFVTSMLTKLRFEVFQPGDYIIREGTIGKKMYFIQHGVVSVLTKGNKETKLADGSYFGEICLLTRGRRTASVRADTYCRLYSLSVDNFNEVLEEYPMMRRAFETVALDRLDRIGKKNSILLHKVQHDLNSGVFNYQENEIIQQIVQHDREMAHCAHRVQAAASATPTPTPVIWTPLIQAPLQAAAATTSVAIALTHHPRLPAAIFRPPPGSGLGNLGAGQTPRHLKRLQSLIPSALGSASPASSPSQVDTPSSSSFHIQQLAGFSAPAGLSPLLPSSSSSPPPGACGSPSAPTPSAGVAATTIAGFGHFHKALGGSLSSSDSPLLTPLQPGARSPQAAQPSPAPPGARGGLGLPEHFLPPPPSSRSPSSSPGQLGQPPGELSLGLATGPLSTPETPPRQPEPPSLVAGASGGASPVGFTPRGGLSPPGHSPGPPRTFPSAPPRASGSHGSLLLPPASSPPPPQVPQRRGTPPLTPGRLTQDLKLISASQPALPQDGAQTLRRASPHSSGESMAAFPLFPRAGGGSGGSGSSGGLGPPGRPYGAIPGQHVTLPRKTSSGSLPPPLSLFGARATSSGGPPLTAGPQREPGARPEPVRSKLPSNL
T4 sequence (Q9UL51 whole entry): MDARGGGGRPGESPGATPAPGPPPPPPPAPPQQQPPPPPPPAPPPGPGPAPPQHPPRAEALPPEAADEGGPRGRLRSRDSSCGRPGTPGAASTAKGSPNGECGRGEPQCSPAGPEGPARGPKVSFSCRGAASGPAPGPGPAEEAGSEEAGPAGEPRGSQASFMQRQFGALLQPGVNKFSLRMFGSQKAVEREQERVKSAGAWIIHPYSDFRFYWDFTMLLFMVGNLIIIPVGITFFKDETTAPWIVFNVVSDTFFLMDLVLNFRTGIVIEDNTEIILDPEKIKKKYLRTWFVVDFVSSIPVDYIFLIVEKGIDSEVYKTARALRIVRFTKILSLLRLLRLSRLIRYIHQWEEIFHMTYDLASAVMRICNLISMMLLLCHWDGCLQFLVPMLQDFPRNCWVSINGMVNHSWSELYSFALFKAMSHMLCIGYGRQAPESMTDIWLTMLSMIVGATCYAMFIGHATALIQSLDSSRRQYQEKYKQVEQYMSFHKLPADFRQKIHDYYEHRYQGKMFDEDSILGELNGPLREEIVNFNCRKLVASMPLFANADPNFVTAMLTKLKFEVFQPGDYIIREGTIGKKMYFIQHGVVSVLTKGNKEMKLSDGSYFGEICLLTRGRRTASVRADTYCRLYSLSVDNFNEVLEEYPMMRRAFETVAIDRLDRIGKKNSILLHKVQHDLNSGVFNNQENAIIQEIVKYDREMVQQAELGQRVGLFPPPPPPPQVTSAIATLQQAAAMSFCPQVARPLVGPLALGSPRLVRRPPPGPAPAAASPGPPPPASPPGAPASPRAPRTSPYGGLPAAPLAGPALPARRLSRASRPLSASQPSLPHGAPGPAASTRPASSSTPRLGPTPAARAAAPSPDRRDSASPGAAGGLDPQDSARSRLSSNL
T3 sequence (O60741 whole entry, species assumed): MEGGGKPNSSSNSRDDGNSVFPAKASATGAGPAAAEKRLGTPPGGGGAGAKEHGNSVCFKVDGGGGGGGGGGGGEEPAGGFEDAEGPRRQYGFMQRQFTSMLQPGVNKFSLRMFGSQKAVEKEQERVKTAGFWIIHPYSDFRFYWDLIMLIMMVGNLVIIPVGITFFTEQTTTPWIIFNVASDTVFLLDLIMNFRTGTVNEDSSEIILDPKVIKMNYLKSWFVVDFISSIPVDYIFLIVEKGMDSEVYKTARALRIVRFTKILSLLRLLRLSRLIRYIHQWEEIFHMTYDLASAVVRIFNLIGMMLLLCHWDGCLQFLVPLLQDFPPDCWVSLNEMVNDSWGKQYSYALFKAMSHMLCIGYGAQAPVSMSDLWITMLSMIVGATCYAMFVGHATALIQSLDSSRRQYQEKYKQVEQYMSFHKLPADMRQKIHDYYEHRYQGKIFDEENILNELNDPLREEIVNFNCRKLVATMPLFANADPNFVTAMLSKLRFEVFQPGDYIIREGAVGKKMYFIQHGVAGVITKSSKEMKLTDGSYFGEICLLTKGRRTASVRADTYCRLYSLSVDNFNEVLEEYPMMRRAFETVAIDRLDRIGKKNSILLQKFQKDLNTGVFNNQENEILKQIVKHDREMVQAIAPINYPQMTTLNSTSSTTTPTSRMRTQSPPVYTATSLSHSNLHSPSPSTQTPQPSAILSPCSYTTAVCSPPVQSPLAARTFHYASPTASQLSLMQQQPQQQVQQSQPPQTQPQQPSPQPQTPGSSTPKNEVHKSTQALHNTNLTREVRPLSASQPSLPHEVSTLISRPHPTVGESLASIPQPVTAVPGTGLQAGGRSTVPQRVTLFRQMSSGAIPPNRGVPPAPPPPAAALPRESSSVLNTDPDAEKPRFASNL
T2 sequence (Q14524 whole entry): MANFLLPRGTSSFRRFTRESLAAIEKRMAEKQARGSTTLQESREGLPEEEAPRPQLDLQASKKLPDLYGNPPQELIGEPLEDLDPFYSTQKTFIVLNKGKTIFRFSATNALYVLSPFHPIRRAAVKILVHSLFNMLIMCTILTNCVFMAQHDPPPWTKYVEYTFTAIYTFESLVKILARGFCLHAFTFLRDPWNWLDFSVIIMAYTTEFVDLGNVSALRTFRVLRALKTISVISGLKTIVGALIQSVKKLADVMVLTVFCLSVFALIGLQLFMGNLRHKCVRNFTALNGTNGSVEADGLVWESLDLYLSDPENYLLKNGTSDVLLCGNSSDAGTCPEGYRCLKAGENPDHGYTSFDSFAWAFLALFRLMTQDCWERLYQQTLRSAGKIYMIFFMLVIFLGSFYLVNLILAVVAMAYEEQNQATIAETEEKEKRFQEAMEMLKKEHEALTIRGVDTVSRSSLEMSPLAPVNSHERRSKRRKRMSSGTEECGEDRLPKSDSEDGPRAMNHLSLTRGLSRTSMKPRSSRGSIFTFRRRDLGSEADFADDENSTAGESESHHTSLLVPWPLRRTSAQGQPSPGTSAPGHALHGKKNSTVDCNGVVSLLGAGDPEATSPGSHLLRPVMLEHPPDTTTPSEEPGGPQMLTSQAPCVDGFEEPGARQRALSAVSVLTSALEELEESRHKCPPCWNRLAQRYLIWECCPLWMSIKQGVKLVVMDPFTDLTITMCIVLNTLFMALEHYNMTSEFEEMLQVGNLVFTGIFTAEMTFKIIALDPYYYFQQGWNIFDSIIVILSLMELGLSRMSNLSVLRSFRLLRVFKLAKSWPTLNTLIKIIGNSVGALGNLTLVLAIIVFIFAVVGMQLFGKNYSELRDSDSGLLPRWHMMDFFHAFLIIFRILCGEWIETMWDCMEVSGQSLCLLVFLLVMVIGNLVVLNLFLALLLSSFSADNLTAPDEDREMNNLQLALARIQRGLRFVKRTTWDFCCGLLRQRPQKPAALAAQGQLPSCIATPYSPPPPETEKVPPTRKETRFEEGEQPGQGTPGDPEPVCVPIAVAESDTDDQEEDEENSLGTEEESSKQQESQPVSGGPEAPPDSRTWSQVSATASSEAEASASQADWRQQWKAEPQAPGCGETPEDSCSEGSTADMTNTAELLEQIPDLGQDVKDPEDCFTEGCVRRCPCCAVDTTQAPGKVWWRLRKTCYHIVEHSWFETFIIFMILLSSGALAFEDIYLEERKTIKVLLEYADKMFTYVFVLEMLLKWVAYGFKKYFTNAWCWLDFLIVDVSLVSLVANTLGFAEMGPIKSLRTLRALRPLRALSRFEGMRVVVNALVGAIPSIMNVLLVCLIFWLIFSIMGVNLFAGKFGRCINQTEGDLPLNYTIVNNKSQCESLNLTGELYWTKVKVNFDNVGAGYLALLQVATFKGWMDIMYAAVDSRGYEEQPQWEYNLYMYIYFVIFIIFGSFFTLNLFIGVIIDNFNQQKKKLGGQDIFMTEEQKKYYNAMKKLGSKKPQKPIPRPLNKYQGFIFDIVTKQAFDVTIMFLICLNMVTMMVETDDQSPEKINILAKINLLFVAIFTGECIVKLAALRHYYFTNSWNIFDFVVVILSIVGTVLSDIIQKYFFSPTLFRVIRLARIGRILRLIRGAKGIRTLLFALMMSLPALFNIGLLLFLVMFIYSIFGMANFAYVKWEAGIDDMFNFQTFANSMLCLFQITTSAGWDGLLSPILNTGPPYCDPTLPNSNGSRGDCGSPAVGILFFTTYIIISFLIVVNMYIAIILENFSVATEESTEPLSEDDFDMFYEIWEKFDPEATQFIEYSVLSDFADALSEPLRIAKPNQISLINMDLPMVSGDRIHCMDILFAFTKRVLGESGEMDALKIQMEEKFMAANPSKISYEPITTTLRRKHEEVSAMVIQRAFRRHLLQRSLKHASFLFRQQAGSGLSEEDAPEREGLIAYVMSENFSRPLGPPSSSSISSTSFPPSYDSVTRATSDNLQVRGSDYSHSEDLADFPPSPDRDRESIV

| pIC50 [7] | SMILES | pIC50 [3] | pIC50 [4] | pIC50 [5] | pIC50 [6] | efflux ratio at 1 h, 10 μM [8] | pIC50 [9] | also measured |
| --- | --- | --- | --- | --- | --- | --- | --- | --- |
| 5.60 | CS(=O)(=O)c1ccc(F)c(C[C@H](N)c2ccccc2-c2noc3cc(Br)ccc23)n1 [Example 21, (S)-1-[2-(6-Bromobenzo[d]isoxazol-3-yl)phenyl]-2-(3-Fluoro-6-methylsulfonylpyridin-yl)ethan-1-amine hydrochloride] |  |  |  | 5.28 |  |  |  |
| 4.76 | CS(=O)(=O)c1ccc(F)c(C[C@H](N)c2ccccc2-c2noc3cc(C(F)(F)F)ccc23)n1 [Example 10, (S)-2-(3-Fluoro-6-methylsulfonylpyridine-2-yl)-1-[2-(6-trifluoromethylbenzo[d]isoxazol-3-yl)phenyl]ethan-1-amine hydrochloride] |  |  |  |  |  |  |  |
| < 4.52 | CC(C)S(=O)(=O)c1ccc(F)c(C[C@H](N)c2ccccc2-c2noc3cc(Cl)ccc23)n1 [Example 25, (S)-1-[2-(6-Chlorobenzo[d]isoxazol-3-yl)phenyl]-2-(3-fluoro-6-isopropyisulfonylpyridin-2-yl)ethan-1-amine hydrochloride] |  |  |  |  |  |  |  |
| 6.00 | Cc1ccc(C#N)nc1C[C@H](N)c1ccccc1-c1noc2cc(Br)ccc12 [Example 28, (S)-2-{2-Amino-2-[2-(6-bromobenzo[d]isoxazol-3-yl)phenyl]ethyl}-3-methylpyridine-6-carbonitrile] |  |  |  |  |  |  |  |
| 5.77 | Cc1ccc(S(C)(=O)=O)nc1C[C@H](N)c1ccccc1-c1noc2cc(Cl)ccc12 [Example 23, (S)-1-[2-(6-Chlorobenzo[d]isoxazol-3-yl)phenyl]-2-(3-methyl-6-methylsulfonylpyridin-2-yl)ethan-1-amine hydrochloride] |  |  |  |  |  | 5.92 | pIC50 [11]: 4.86 |
| 5.92 | N[C@@H](Cc1nc(Br)ccc1F)c1ccccc1-c1noc2cc(F)ccc12 [Example 15, (S)-2-(6-Bromo-3-fluoropyridine-2-yl)-1-[2-(6-fluorobenzo[d]isoxazol-3-yl)phenyl]-ethan-1-amine hydrochloride] |  |  |  | 5.29 |  |  |  |

Continued, compound first:

| SMILES | pIC50 [7] | pIC50 [3] | pIC50 [4] | pIC50 [5] | pIC50 [6] | efflux ratio at 1 h, 10 μM [8] | pIC50 [9] | also measured |
| --- | --- | --- | --- | --- | --- | --- | --- | --- |
| Cn1nc(-c2ccccc2[C@@H](N)Cc2ccccn2)c2ccccc21 [Example 60, (S)-1-[2-(1-Methyl-1H-indazole-3-yl)phenyl]-2-(pyridine-2-yl)ethan-1-amine hydrochloride] |  | < 4.52 | 5.51 | < 4.52 |  |  |  | pIC50 [1]: 6.49; pIC50 [2]: 5.04 |
| CN(C)C(=O)c1ccc(F)c(C[C@H](N)c2ccccc2-c2noc3ccccc23)n1 [Example 74, (S)-6-{2-Amino-2-[2-(benzo[d]isoxazol-3-yl)phenyl]ethyl}-5-fluoro-N,N-dimethylpyridin-2-carboxamide hydrochloride] |  | 5.34 | 5.74 | 4.68 |  | 16.7 |  | pIC50 [1]: 5.00; pIC50 [2]: 4.94 |
| CS(=O)(=O)c1ccc(F)c(C[C@H](N)c2ccccc2-c2noc3cc(Cl)ccc23)n1 [Example 13, (S)-1-[2-(6-Chlorobenzo[d]isoxazol-3-yl)phenyl]-2-(3-fluoro-6-methylsulfonylpyridine-2-yl)ethan-1-amine hydrochloride] | 5.59 |  |  |  | 5.49 | 6.2 | 5.85 | pIC50 [10]: < 4.52; pIC50 [11]: 4.82 |
| CS(=O)(=O)c1ccc(F)c(C[C@H](N)c2ccccc2-c2noc3cc(F)ccc23)n1 [Example 20, (S)-2-(3-Fluoro-6-methylsulfonylpyridin-2-yl)-1-[2-(6-fluorobenzo[d]isoxazol-3-yl)phenyl]ethan-1-amine hydrochloride] | 5.51 |  |  |  | 4.77 | 6.2 | 5.54 | pIC50 [10]: < 4.52; pIC50 [11]: 4.55 |
| N#Cc1ccc(F)c(C[C@H](N)c2ccccc2-c2noc3cc(Br)ccc23)n1 [Example 27, (S)-2-{2-Amino-2-[2-(6-bromobenzo[d]isoxazol-3-yl)phenyl]ethyl}-3-fluoropyridine-6-carbonitrile] | 5.85 |  |  |  |  |  |  |  |
| Cc1ccc2c(-c3ccccc3[C@@H](N)Cc3nc(S(C)(=O)=O)ccc3F)noc2c1 [Example 11, (S)-2-(3-Fluoro-6-methylsulfonylpyridine-2-yl)-1-[2-(6-methylbenzo[d]isoxazol-3-yl)phenyl]ethan-1-amine hydrochloride] | 5.49 |  |  |  |  | 5.2 | 5.33 | pIC50 [10]: 4.52; pIC50 [11]: 4.67 |
| NC(=O)c1ccc(F)c(C[C@H](N)c2ccccc2-c2noc3ccccc23)n1 [Example 72, (S)-6-{2-Amino-2-[2-(benzo[d]isoxazol-3-yl)phenyl]ethyl}-5-fluoropyridine-2-carboxamide formate] |  | 6.00 | 5.92 | 4.99 |  | 11.3 |  | pIC50 [1]: 4.68; pIC50 [2]: 4.73 |
| CS(=O)(=O)c1ccc(F)c(C[C@H](N)c2ccccc2-c2noc3ccc(F)cc23)n1 [Example 22, (S)-1-[2-(5-Fluorobenzo[d]isoxazol-3-yl)phenyl]-2-(3-fluoro-6-methylsulfonylpyridin-2-yl)ethan-1-amine hydrochloride] |  |  |  |  | 4.56 |  | 5.24 | pIC50 [10]: 4.68; pIC50 [11]: 4.62 |
| N[C@@H](Cc1nc(Br)ccc1F)c1ccccc1-c1noc2cc(Br)ccc12 [Example 16, (S)-2-(6-Bromo-3-fluoropyridine-2-yl)-1-[2-(6-bromobenzo[d]isoxazol-3-yl)phenyl]-ethan-1-amine] | 5.70 |  |  |  | 5.52 |  |  |  |
| Cc1ccc2c(-c3ccccc3[C@@H](N)Cc3nc(S(C)(=O)=O)ccc3C)noc2c1 [Example 19, (S)-2-(3-Methyl-6-methylsulfonylpyridin-2-yl)-1-[2-(6-methylbenzo[d]isoxazol-3-yl)phenyl]ethan-1-amine hydrochloride] | 5.85 |  |  |  | 5.54 | 12.4 | 5.89 | pIC50 [10]: 4.88; pIC50 [11]: 4.94 |
| N#Cc1cccc(C[C@H](N)c2ccccc2-c2noc3ccccc23)n1 [Example 116, (S)-1-[2-(Benzo[d]isoxazol-3-yl)phenyl]-2-(6-cyanopyridine-2-yl)ethan-1-amine hydrochloride] |  | 5.47 | 6.15 | 4.87 |  | 1.1 |  | pIC50 [1]: 4.99; pIC50 [2]: 4.95 |
| Cc1cccc(C[C@H](N)c2ccccc2-c2noc3ccccc23)n1 [Example 114, (S)-1-[2-(Benzo[d]isoxazol-3-yl)phenyl]-2-(6-methylpyridine-2-yl)ethan-1-amine hydrochloride] |  | 5.35 | 6.21 | 5.05 |  |  |  |  |
| CCc1ccc(C)c(C[C@H](N)c2ccccc2-c2noc3ccccc23)n1 [Example 9, (S)-1-[2-(Benzo[d]isoxazol-3-yl)phenyl]-2-(6-ethyl-3-methylpyridine-2-yl)ethan-1-amine hydrochloride] |  | 6.43 | 6.59 | 5.77 |  |  |  |  |
| N#Cc1ccc2c(-c3ccccc3[C@@H](N)Cc3nc(Br)ccc3F)noc2c1 [Example 17, (S)-2-(6-Bromo-3-fluoropyridine-2-yl)-1-[2-(6-cyanobenzo[d]isoxazol-3-yl)phenyl]-ethan-1-amine hydrochloride] | 5.24 |  |  |  |  |  | 5.51 |  |
| Cc1ccc(S(C)(=O)=O)nc1C[C@H](N)c1ccccc1-c1noc2ccccc12 [Example 125, (S)-1-[2-(Benzo[d]isoxazol-3-yl)phenyl]-2-[3-methyl-6-(methylsulfonyl)pyridine-2-yl]ethan-1-amine hydrochloride] |  | 6.40 | 6.62 | 5.92 |  |  |  |  |
